These results are taken from US5756327A, “Recombinant mycobacterial isoleucyl-tRNA synthetase genes, tester strains and assays” (priority 1995, dated 1998).

In experiment [1] the test system is E. coli IleRS. Conditions: Hughes and Mellows, Biochem. J. 176:305-318 (1978); cited from earlier work.
Experiment [2] concerns E. coli cells with the TB GST-IleRS fusion construct, pGX-56. Type of experiment: cell-based. To be noted: as for pKS-56: 40 μg/ml PMA, LB plus ampicillin.
Experiment [3] concerns E. coli DH5α cells expressing the M. tuberculosis IleRS gene (on pKS-56). The format is cell-based.
Experiment [4] has as its system DH5α cells expressing wild-type IleRS on a plasmid (pKS21). Kind of experiment: Pseudomonic acid (PMA) rescue, growth in liquid culture (A600). Type of experiment: cell-based, E. coli. Conditions: LB plus ampicillin media containing 40 μg/ml PMA; 30° C., 36-40 hours.

As for `C/C(=C\C(=O)OCCCCCCCCC(=O)O)C[C@@H]1OC[C@H](C[C@@H]2O[C@H]2[C@@H](C)[C@H](C)O)[C@@H](O)[C@H]1O` [PMA, pseudomonic acid A], the “sensitivity of E. coli IleRS to PMA” value in experiment [1] is “extremely sensitive”. In addition, the inhibition of growth entry in experiment [2] is recorded as “Identical results”; in experiment [3] (LB plus ampicillin media containing 40 μg/ml PMA, 30° C., 36-40 hours), “no inhibition of growth”; in experiment [4] it was “completely inhibited”. Further, in experiment [3] (LB plus ampicillin with 640 μg/ml PMA (higher concentrations were not tested)), the “growth at highest concentration tested” value is recorded as “continued to grow”.
